According to ChEMBL document CHEMBL1155182, “Diphenylmethylene hydroxamic acids as selective class IIa histone deacetylase inhibitors” (Bioorg Med Chem Lett, 2009):

How the values were obtained:
Histone deacetylase 4 = Histone deacetylase 4 (Homo sapiens, UniProt P56524)
Description: Inhibition of human recombinant N-terminal FLAG-tagged HDAC4 (612-1034) expressed in baculovirus after 10 mins by fluorimetric analysis

Histone deacetylase 5 = Histone deacetylase 5 (Homo sapiens, UniProt Q9UQL6)
Description: Inhibition of human recombinant N-terminal FLAG-tagged HDAC5 (620-1122) expressed in baculovirus after 10 mins by fluorimetric analysis

Histone deacetylase 7 = molecular target: T1, Histone deacetylase 7 (Homo sapiens, UniProt Q8WUI4)
T1 sequence (Q8WUI4 whole entry): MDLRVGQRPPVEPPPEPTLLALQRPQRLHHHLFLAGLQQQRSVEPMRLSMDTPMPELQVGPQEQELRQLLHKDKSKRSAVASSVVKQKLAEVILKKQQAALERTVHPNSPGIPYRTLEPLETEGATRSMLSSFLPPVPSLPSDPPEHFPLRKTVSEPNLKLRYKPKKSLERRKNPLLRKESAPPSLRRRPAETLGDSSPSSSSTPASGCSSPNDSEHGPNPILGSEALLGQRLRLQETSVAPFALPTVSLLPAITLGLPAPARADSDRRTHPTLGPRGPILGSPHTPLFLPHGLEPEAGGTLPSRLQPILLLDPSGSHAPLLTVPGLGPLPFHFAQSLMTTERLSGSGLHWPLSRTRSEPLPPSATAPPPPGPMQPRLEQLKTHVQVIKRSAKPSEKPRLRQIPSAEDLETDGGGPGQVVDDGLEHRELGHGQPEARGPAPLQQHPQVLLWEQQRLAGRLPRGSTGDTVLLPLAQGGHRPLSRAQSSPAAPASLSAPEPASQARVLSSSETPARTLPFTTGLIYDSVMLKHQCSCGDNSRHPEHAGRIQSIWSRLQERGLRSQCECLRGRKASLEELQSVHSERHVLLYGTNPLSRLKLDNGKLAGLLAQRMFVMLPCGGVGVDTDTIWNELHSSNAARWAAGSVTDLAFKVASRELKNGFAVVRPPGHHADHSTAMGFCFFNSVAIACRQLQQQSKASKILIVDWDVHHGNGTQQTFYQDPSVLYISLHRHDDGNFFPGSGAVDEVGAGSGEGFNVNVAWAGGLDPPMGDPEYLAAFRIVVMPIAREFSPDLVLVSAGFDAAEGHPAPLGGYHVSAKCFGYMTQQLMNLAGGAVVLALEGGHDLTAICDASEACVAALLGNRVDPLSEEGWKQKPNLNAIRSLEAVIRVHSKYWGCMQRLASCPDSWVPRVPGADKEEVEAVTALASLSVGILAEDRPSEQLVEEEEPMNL
Description: Inhibition of human recombinant N-terminal FLAG-tagged HDAC7 (438-915) expressed in baculovirus after 10 mins by fluorimetric analysis

Histone deacetylase [1] = details: hek-293t
Description: Inhibition of class 1 HDAC in HEK293T cells after 16 hrs by whole cell assay

Histone deacetylase [2] = details: hek-293t; remark: listed apart in the source
Description: Inhibition of class 2a HDAC in HEK293T cells after 16 hrs by whole cell assay

Sequence of Histone deacetylase 5 (Q9UQL6 whole entry): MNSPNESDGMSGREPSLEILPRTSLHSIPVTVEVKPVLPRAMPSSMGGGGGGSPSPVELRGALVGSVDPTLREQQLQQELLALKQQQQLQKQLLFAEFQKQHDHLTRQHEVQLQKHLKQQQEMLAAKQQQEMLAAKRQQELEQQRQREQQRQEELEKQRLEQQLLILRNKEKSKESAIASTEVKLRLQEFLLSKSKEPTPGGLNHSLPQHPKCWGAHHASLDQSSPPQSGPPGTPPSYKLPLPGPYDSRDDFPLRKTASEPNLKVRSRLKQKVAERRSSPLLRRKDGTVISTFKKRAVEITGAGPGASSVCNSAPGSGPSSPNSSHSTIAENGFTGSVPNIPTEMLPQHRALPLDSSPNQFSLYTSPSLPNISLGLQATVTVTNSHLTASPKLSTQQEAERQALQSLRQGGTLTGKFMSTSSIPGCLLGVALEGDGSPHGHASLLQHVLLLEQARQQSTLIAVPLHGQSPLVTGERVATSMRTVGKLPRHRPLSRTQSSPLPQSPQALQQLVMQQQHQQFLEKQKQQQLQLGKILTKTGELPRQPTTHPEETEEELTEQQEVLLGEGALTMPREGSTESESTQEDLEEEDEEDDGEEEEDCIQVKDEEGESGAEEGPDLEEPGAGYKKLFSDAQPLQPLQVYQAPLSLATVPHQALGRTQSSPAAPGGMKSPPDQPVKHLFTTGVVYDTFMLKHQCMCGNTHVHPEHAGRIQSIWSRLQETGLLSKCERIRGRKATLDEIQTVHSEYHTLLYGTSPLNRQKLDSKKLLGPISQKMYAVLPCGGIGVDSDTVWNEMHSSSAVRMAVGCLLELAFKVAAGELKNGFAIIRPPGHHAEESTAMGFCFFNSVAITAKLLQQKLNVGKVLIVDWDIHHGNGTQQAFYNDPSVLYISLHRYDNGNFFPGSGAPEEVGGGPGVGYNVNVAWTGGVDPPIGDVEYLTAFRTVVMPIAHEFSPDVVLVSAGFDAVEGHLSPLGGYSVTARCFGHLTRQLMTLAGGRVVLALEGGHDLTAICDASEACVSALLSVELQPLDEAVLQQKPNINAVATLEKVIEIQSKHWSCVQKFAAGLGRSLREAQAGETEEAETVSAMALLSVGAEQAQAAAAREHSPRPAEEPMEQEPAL
Sequence of Histone deacetylase 4 (P56524 whole entry): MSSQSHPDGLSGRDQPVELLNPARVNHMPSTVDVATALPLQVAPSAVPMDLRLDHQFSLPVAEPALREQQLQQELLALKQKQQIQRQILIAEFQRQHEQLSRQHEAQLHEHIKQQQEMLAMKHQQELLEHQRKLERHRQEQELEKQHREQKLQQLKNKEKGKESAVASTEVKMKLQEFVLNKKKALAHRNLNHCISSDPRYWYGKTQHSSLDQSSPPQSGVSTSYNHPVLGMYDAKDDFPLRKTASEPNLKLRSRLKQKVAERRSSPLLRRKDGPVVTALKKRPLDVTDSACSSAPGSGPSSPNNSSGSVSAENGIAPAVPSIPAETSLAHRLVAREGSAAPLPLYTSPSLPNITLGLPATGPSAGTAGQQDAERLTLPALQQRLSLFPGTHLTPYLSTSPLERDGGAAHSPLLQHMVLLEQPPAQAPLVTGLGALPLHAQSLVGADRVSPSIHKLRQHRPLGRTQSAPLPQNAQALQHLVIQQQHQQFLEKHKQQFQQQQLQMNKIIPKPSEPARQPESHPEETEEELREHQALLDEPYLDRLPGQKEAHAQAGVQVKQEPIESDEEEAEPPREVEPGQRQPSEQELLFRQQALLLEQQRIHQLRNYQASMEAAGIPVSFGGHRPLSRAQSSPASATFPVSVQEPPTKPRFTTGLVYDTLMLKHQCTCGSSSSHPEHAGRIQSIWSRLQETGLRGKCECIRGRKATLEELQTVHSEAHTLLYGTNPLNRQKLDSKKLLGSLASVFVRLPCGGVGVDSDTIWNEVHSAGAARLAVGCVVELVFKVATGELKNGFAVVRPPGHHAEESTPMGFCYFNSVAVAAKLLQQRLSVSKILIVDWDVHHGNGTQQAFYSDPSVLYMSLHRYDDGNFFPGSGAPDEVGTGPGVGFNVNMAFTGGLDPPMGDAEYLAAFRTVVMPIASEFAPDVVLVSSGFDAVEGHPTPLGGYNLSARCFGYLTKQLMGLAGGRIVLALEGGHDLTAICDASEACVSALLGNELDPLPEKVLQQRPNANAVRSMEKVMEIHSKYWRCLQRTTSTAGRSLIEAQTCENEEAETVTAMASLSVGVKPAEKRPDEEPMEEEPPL

IC50 (Histone deacetylase 4) | IC50 (Histone deacetylase 5) | IC50 (Histone deacetylase 7) | IC50 (Histone deacetylase [1]) | IC50 (Histone deacetylase [2]) | SMILES
> 10000 nM | > 10000 nM | > 10000 nM | – | – | CC(C(=O)NO)c1ccccc1 (stereo not drawn)
> 10000 nM | > 10000 nM | > 10000 nM | – | – | O=C(CC(c1ccccc1)c1ccccc1)NO
4500 nM | 1200 nM | 4800 nM | > 50000 nM | 16000 nM | CC(C(=O)NO)(c1ccccc1)c1ccccc1
700 nM | 90 nM | – | – | – | O=C(NO)C(c1cccc(F)c1)c1cccc(F)c1
1100 nM | 280 nM | 1760 nM | > 50000 nM | 3500 nM | O=C(NO)C(c1ccc(F)cc1)c1ccc(F)cc1
210 nM | 110 nM | 110 nM | > 50000 nM | 900 nM | O=C(NO)C(c1ccc2c(c1)CCO2)c1ccc2c(c1)CCO2
> 10000 nM | > 10000 nM | > 10000 nM | – | – | O=C(NO)C(Cc1ccccc1)c1ccccc1 (stereo not drawn)
1910 nM | 470 nM | – | – | – | CN1c2ccccc2C(C(=O)NO)c2ccccc21
960 nM | 210 nM | 1400 nM | – | – | O=C(NO)C(c1ccc(Cl)cc1)c1ccc(Cl)cc1
2320 nM | 1460 nM | – | – | – | O=C(NO)C1c2ccccc2Cc2ccccc21
> 10000 nM | > 10000 nM | > 10000 nM | > 50000 nM | > 50000 nM | CS(=O)(=O)Nc1ccc(C(C(=O)NO)c2ccc(NS(C)(=O)=O)cc2)cc1
